According to PubChem BioAssay (NCI):
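Cells were grown in 96-well plates and exposed to each compound for 48 hours at five concentrations; endpoints were interpolated linearly between bracketing concentrations, or set to the highest concentration if not reached. Here, GI50 denotes the concentration required for 50% inhibition of growth. TGI: concentration producing complete growth inhibition.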 Where a SMILES comes first, the peptide text is derived from it. [ ]: non-standard residue; d: D form. The star is where a group is joined. ξ: configuration not given here. ξF = NC(Cc1ccccc1)C(=O)O; Cbz = O=C(OCc1ccccc1)*; Aib = CC(C)(N)C(=O)O

Legend:
Assay in all cases: NCI-60 cell line screen, 48 h
[1] = tested on: NCI-H522 lung
[2] = tested on: SNB-75 CNS
[3] = tested on: PC-3 prostate
[4] = tested on: NCI-H226 lung
[5] = tested on: DU-145 prostate
[6] = tested on: OVCAR-8 ovarian
[7] = tested on: KM12 colon
[8] = tested on: TK-10 renal
[9] = tested on: UACC-257 melanoma
[10] = tested on: MDA-MB-231 breast

Row | Structure (SMILES) | TGI [1] [µM] | TGI [2] [µM] | TGI [3] [µM] | TGI [4] [µM] | TGI [5] [µM] | TGI [6] [µM] | TGI [7] [µM] | GI50 [1] [µM] | GI50 [4] [µM] | GI50 [6] [µM] | GI50 [7] [µM] | GI50 [8] [nM] | TGI [8] [µM] | TGI [9] [µM] | TGI [10] [µM] | GI50 [9] [nM] | GI50 [2] [µM] | GI50 [3] [µM] | GI50 [5] [nM] | GI50 [10] [nM]
1 | CCOC(=O)CCC(NC(=O)OCc1ccccc1)C(=O)NC(CCC(=O)OCC)C(=O)NNC(=O)OC(C)(C)C (stereo unspecified) | > 100 | > 100 | > 100 | > 100 | > 100 | > 100 | > 100 |  |  |  |  |  |  |  |  |  |  |  |  | 
2 | C[CH2][Ge]([CH2]C)([CH2]C)[O]C(=O)CCC(=O)[O][Ge]([CH2]C)([CH2]C)[CH2]C | > 100 |  |  | > 100 |  | > 100 | > 100 | 45.2 | > 100 | 34.7 | 55.2 | > 100000 | > 100 |  |  |  |  |  |  | 
3 | COC(=O)C(C)(C)NC(=O)C(Cc1ccccc1)NC(=O)C(C)(C)NC(=O)OCc1ccccc1 (stereo unspecified) (Cbz-[Aib]-[ξF]-[Aib]-OMe) | > 100 |  | > 100 |  | > 100 | > 100 |  |  |  |  |  |  | > 100 | > 100 | > 100 |  |  |  |  | 
4 | N=C(N)c1ccc(-c2ccc(-c3cccs3)s2)s1 | 3.02 | 3.41 | 2.98 | 52.4 | 2.97 |  | 2.92 | 1.49 | 6.89 |  | 1.47 | 1480 | 2.89 | 3.11 | 3.13 | 1660 | 1.77 | 1.53 | 1520 | 1500
5 | C(=N\OCCc1ccccc1)/c1cccnc1 | > 100 | > 100 | > 100 | > 100 | > 100 | > 100 | > 100 |  |  |  |  |  | > 100 | > 100 | > 100 |  |  |  |  | 
6 | NCCSCc1ccccc1Cl | > 100 | > 100 | 93.8 | > 100 | > 100 | > 100 | > 100 |  |  |  |  |  | 74 | 51.9 | > 100 |  |  |  |  | 
7 | COc1cc(-c2n/c(=C\c3c(O)[nH]c4cc(Cl)ccc34)cc3c2=Nc2ccccc2-3)cc(OC)c1OC | 18.4 | 25.1 | 58.4 | 21.9 | 7.52 | 29.2 | > 100 | 3.85 | 3.85 | 4.6 | 5.89 | 2340 | 5.26 | 18.8 | 11.3 | 4010 | 5.05 | 4.59 | 2570 | 3170
8 | Cc1ccc(C(O)(c2ccc(C)cc2)c2ccccn2)cc1 |  | > 100 |  | > 100 |  | > 100 |  |  |  |  |  |  | > 100 | > 100 |  |  |  |  |  | 
9 | CC(=O)ON1C(=O)c2cccc3cccc(c23)C1=O | 43.6 |  | > 100 |  | 40.2 | > 100 | > 100 |  |  |  |  |  | 88.5 | 67 | > 100 |  |  |  |  | 
10 | c1cncc(O[Si](Oc2cccnc2)(Oc2cccnc2)Oc2cccnc2)c1 |  | > 100 |  | > 100 |  | > 100 | > 100 |  |  |  |  |  | > 100 | > 100 |  |  |  |  |  | 
